Reference: patent US10273226B2, “Pyrazolyl-heteroarylamides as pesticides” (Bayer Animal Health GmbH, priority 2014, dated 2019)

Assays:
Format in all cases: in vivo
[1] = system: Boophilus microplus; assay: Boophilus microplus injection test; settings: application rate 20 μg/animal; injection into abdomen; assessed after 7 days
Protocol: Boophilus microplus—Injection Test
(§1) Solvent: dimethyl sulphoxide
To produce an appropriate active ingredient formulation, 10 mg of active ingredient are mixed with 0.5 ml of solvent and the concentrate is diluted with solvent to the desired concentration.
1 μl of the active ingredient solution is injected into the abdomen of 5 engorged adult female cattle ticks (Boophilus microplus). The animals are transferred into dishes and kept in a climate-controlled room.
Efficacy is assessed after 7 days by laying of fertile eggs. Eggs which are not visibly fertile are stored in a climate-controlled cabinet until the larvae hatch after about 42 days. An efficacy of 100% means that none of the ticks has laid any fertile eggs; 0% means that all the eggs are fertile.

[2] = system: Lucilia cuprina; assay: Lucilia cuprina test; settings: application rate 100 ppm; L1 larvae; after 2 days
Protocol: as §1
To produce an appropriate active ingredient formulation, 10 mg of active ingredient are mixed with 0.5 ml of dimethyl sulphoxide, and the concentrate is diluted with water to the desired concentration.
About 20 L1 larvae of the Australian sheep blowfly (Lucilia cuprina) are transferred into a test vessel containing minced horsemeat and the active ingredient preparation of the desired concentration.
After 2 days, the kill in % is determined. 100% means that all the larvae have been killed and 0% means that none of the larvae have been killed.

[3] = system: Phaedon cochleariae; assay: Phaedon cochleariae spray test; settings: application rate 100 g/ha; larvae; after 7 days
Protocol: Phaedon cochleariae—Spray Test
(§2) To produce an appropriate active ingredient formulation, 1 part by weight of active ingredient is dissolved using the specified parts by weight of solvent and made up with water containing an emulsifier concentration of 1000 ppm until the desired concentration is attained. To produce further test concentrations, the preparation is diluted with emulsifier-containing water.
Discs of Chinese cabbage leaves (Brassica pekinensis) are sprayed with an active ingredient formulation of the desired concentration and, after drying, populated with larvae of the mustard beetle (Phaedon cochleariae).
After 7 days, efficacy in % is determined. 100% means that all the beetle larvae have been killed; 0% means that no beetle larvae have been killed.

[4] = system: Ctenocephalides felis; assay: Ctenocephalides felis oral test; settings: application rate 100 ppm in citrated cattle blood; after 2 days
Protocol: Ctenocephalides felis—Oral Test
as §1
For the purpose of producing an appropriate active ingredient formulation, 10 mg of active ingredient are mixed with 0.5 ml of dimethyl sulphoxide. Dilution with citrated cattle blood gives the desired concentration.
About 20 unfed adult cat fleas (Ctenocephalides felis) are placed into a chamber which is closed at the top and bottom with gauze. A metal cylinder whose bottom end is closed with parafilm is placed onto the chamber. The cylinder contains the blood/active ingredient preparation, which can be imbibed by the fleas through the parafilm membrane.
After 2 days, the kill in % is determined. 100% means that all of the fleas have been killed; 0% means that none of the fleas have been killed.

[5] = system: Rhipicephalus sanguineus; assay: Rhipicephalus sanguineus in vitro contact test with adult brown dog ticks; settings: after 48 h, ticks dead or moribund
Protocol: Rhipicephalus sanguineus—In Vitro Contact Tests with Adult Brown Dog Ticks
For the coating of the test tubes, 9 mg of active ingredient are first dissolved in 1 ml of acetone p.a. and then diluted to the desired concentration with acetone p.a. 250 μl of the solution are distributed homogeneously on the inner walls and base of a 25 ml test tube by turning and rocking on an orbital shaker (rocking rotation at 30 rpm for 2 h). With 900 ppm active ingredient solution and internal surface 44.7 cm^2, given homogeneous distribution, an area-based dose of 5 μg/cm^2 is achieved.
After the solvent has evaporated off, the tubes are populated with 5-10 adult dog ticks (Rhipicephalus sanguineus), sealed with a perforated plastic lid and incubated in a horizontal position in the dark at room temperature and ambient humidity. After 48 h, efficacy is determined. To this end, the ticks are knocked to the floor of the tube and incubated on a hotplate at 45-50° C. for not more than 5 min. Ticks which remain motionless on the floor or move in such an uncoordinated manner that they are unable to deliberately avoid the heat by climbing upwards are considered to be dead or moribund.
An efficacy of 100% means that all the ticks were dead or moribund. 0% efficacy means that none of the ticks had been harmed.

[6] = system: Spodoptera frugiperda; assay: Spodoptera frugiperda spray test; settings: caterpillars, after 7 days
Protocol: Spodoptera frugiperda—Spray Test
as §2
Leaf discs of maize (Zea mays) are sprayed with an active ingredient formulation of the desired concentration and, after drying, populated with caterpillars of the armyworm (Spodoptera frugiperda).
After 7 days, efficacy in % is determined. 100% means that all the caterpillars have been killed; 0% means that no caterpillars have been killed.

[7] = application rate 5 μg/cm^2 (500 g/ha)

| SMILES | efficacy (laying of fertile eggs) [1] [%] | efficacy (kill in %) [2] [%] | efficacy (kill in %) [4] [%] | further results |
| --- | --- | --- | --- | --- |
| Cn1nc(C(F)(F)C(F)(F)F)c(C(F)(F)F)c1-n1cc(-c2ccc(F)c(NC(=O)c3ccc(F)c(C(F)(F)F)c3)c2)cn1 [Example 1-050] | 100 | 100 |  | efficacy [3]: 100% |
| Cn1nc(C(F)(F)C(F)(F)F)c(C(F)(F)F)c1-n1cc(-c2cnc(Cl)c(NC(=O)c3ncccc3Cl)c2)cn1 [Example 2-002] | 100 |  |  |  |
| Cn1nc(C(F)(F)C(F)(F)F)c(C(F)(F)F)c1-n1cc(-c2ccc(F)c(NC(=O)c3ccccc3OC(F)(F)F)c2)cn1 [Example 1-074] | 90 |  |  |  |
| Cn1nc(C(F)(F)C(F)(F)F)c(C(F)(F)F)c1-n1cc(-c2ccc(Cl)c(NC(=O)c3ncccc3Cl)c2)cn1 [Example 1-021] |  |  | 80 |  |
| Cc1cc(C(F)F)n2nc(C(=O)Nc3cc(-c4cnn(-c5c(C(F)(F)F)c(C(F)(F)C(F)(F)F)nn5C)c4)ccc3F)nc2n1 [Example 1-062] | 100 | 100 | 100 |  |
| COc1cc(C(=O)Nc2cc(-c3cnn(-c4c(C(F)(F)F)c(C(F)(F)C(F)(F)F)nn4C)c3)cnc2Cl)ccc1F [Example 2-007] | 100 | 100 | 100 | efficacy ([5]; application rate 1 μg/cm^2 (100 g/ha)): 80%; efficacy [3]: 100% |
| Cn1nc(C(F)(F)C(F)(F)F)c(C(F)(F)F)c1-n1cc(-c2ccc(F)c(NC(=O)Cc3cccs3)c2)cn1 [Example 1-117] | 100 | 100 | 100 | efficacy ([6]; application rate 100 g/ha): 100%; efficacy [5, 7]: 100% |
| Cn1nc(C(F)(F)C(F)(F)F)c(C(F)(F)F)c1-n1cc(-c2ccc(F)c(NC(=O)CSc3ccccc3)c2)cn1 [Example 1-107] | 100 |  |  |  |
| CCC(C(=O)Nc1cc(-c2cnn(-c3c(C(F)(F)F)c(C(F)(F)C(F)(F)F)nn3C)c2)ccc1F)c1ccccc1 (racemic) [Example 1-124] | 100 |  |  |  |
| Cn1nc(C(F)(F)C(F)(F)F)c(C(F)(F)F)c1-n1cc(-c2cccc(NC(=O)C3(Cl)CC3)c2)cn1 [Example 1-030] | 100 | 100 | 100 | efficacy ([6]; application rate 500 g/ha): 100%; efficacy [5, 7]: 80% |
| Cn1nc(C(F)(F)C(F)(F)F)c(C(F)(F)F)c1-n1cc(-c2ccc(F)c(NC(=O)C3(c4ccc(Cl)cc4)CCC3)c2)cn1 [Example 1-115] | 100 | 80 | 90 |  |
| Cn1nc(C(F)(F)C(F)(F)F)c(C(F)(F)F)c1-n1cc(-c2ccc(F)c(NC(=O)c3cccc(F)c3F)c2)cn1 [Example 1-070] | 100 | 100 | 100 | efficacy [5, 7]: 80% |
| Cn1nc(C(F)(F)C(F)(F)F)c(C(F)(F)F)c1-n1cc(-c2ccc(F)c(NC(=O)CC(C)(C)C)c2)cn1 [Example 1-079] | 100 | 100 | 95 |  |
| Cn1nc(C(F)(F)C(F)(F)F)c(C(F)(F)F)c1-n1cc(-c2cccc(NC(=O)c3ncccc3Cl)c2F)cn1 [Example 1-020] | 100 | 90 | 95 |  |
| CCOCC(C)(C)C(=O)Nc1cc(-c2cnn(-c3c(C(F)(F)F)c(C(F)(F)C(F)(F)F)nn3C)c2)ccc1F [Example 1-082] | 100 |  | 90 |  |
| Cn1nc(C(F)(F)C(F)(F)F)c(C(F)(F)F)c1-n1cc(-c2cccc(NC(=O)c3ncccc3Cl)c2)cn1 [Example 1-005] | 100 | 100 | 100 | efficacy ([6]; application rate 100 g/ha): 100%; efficacy [3]: 100% |
| CC(Oc1ccccc1)C(=O)Nc1cc(-c2cnn(-c3c(C(F)(F)F)c(C(F)(F)C(F)(F)F)nn3C)c2)ccc1F (racemic) [Example 1-123] | 100 |  | 90 |  |
| Cc1ccc(C2(C(=O)Nc3cc(-c4cnn(-c5c(C(F)(F)F)c(C(F)(F)C(F)(F)F)nn5C)c4)ccc3F)CCCCC2)cc1 [Example 1-111] | 80 |  |  |  |
| COCCC(=O)Nc1cc(-c2cnn(-c3c(C(F)(F)F)c(C(F)(F)C(F)(F)F)nn3C)c2)ccc1F [Example 1-061] | 100 |  | 100 | efficacy [5, 7]: 80% |
| Cc1ccc(C(=O)Nc2cc(-c3cnn(-c4c(C(F)(F)F)c(C(F)(F)C(F)(F)F)nn4C)c3)ccc2F)cc1C [Example 1-090] |  |  |  | efficacy [5, 7]: 100%; efficacy [3]: 100% |
| Cc1c(C(=O)Nc2cc(-c3cnn(-c4c(C(F)(F)F)c(C(F)(F)C(F)(F)F)nn4C)c3)ccc2F)oc2ccccc12 [Example 1-059] | 100 |  |  |  |
| Cn1nc(C(F)(F)C(F)(F)F)c(C(F)(F)F)c1-n1cc(-c2ccc(F)c(NC(=O)c3cccc(C(F)(F)F)c3)c2)cn1 [Example 1-057] | 100 | 100 | 95 | efficacy ([6]; application rate 100 g/ha): 83% |
| Cn1nc(C(F)(F)C(F)(F)F)c(C(F)(F)F)c1-n1cc(-c2ccc(F)c(NC(=O)COCc3ccccc3)c2)cn1 [Example 1-114] | 100 |  |  |  |
| Cn1nc(C(F)(F)C(F)(F)F)c(C(F)(F)F)c1-n1cc(-c2ccc(F)c(NC(=O)C(c3ccccc3)C3CCCC3)c2)cn1 (racemic) [Example 1-109] | 80 |  |  |  |
| Cc1cn(CC(=O)Nc2cc(-c3cnn(-c4c(C(F)(F)F)c(C(F)(F)C(F)(F)F)nn4C)c3)ccc2F)nc1C(F)(F)F [Example 1-112] | 95 |  |  |  |
| CCC(=O)Nc1cccc(-c2cnn(-c3c(C(F)(F)F)c(C(F)(F)C(F)(F)F)nn3C)c2)c1 [Example 1-008] | 100 | 100 | 100 | efficacy [5, 7]: 100% |
| Cn1nc(C(F)(F)C(F)(F)F)c(C(F)(F)F)c1-n1cc(-c2ccc(F)c(NC(=O)CCc3ccccc3)c2)cn1 [Example 1-125] | 100 |  |  |  |
